Patent US20230257484A1, “DENDROBIUM OFFICINALE OLIGOSACCHARIDE, DENDROBIUM OFFICINALE OLIGOSACCHARIDE DERIVATIVE AND PREPARATION METHOD AND USE THEREOF” (KUNMING INSTITUTE OF BOTANY, CHINESE ACADEMY OF SCIENCES, priority 2021, published 2023)

Columns and labels:
[1] = tested on: Hacat cells; assay: Survival of Hacat cells; type: cell-based, human
[2] = tested on: TNF-α secretion, RAW264.7 cells; assay: Immunomodulatory activity: TNF-α secretion by RAW264.7 cells (ELISA); type: cell-based; settings: for TNF-α: RAW264.7, 24 h
Method: (§1) Evaluation of the Immunomodulatory Activity of Dendrobium officinale Oligosaccharides RAW264.7 cells, TNF-α kit, IL-6 kit, distilled water. The logarithmic-growth RAW264.7 cells were taken and inoculated into 12-well plates after cell counting. The plate was placed in an incubator overnight, and then the cell supernatant was discarded. Different concentrations of Dendrobium officinale oligosaccharides, lipopolysaccharides and basal medium 1640 were added under aseptic operation, and the supernatant after 24 h of intervention was collected and stored at −20° C. for later use. The changes in TNF-α and IL-6 secretion were detected according to the instructions of the ELISA kit. The OD value was measured by a microplate reader with a detection wavelength of 450 nm. The OD value was substituted into the regression equation of the standard curve to calculate the increase rate of TNF-α and IL-6 secretion.

[3] = molecular target: porcine pancreatic elastase (Sus scrofa, UniProt P00772); assay: Elastase inhibition rate; type: biochemical
Chain of porcine pancreatic elastase (P00772 27-266): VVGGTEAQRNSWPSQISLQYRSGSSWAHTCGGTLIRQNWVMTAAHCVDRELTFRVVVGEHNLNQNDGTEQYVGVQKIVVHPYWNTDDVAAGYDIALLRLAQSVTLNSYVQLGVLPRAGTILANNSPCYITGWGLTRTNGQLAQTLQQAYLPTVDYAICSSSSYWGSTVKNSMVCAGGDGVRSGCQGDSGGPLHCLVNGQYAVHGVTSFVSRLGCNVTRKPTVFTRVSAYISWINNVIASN
Method: Experiment on the Elastase Inhibition Rate
Sample, positive control of catechin, Tris, HCl, porcine pancreatic elastase, N-succinyl-alanine-alanine-alanine-p-nitroaniline, DMSO.
Preparation of a sample solution: 1 mg/mL sample solution was prepared (pure water or a buffer solution was used for preparation, and if insoluble in water or the buffer solution, the sample was firstly dissolved with DMSO, and then water or the buffer solution was added. In principle, the content of DMSO should not exceed 5%).
Preparation of a positive control: 1 mg/mL catechin;
Preparation of a buffer solution: 0.1 M of Tris-HCl buffer solution, PH=8.0;
Preparation of a reaction substrate solution: N-succinyl-alanine-alanine-alanine-p-nitroaniline (AAAPVN) solution (2 mM);
Preparation: 28.5 μL of porcine pancreatic elastase solution (0.171 U/mL) was taken and dissolved in 10 mL of Tris-HCl buffer solution.
(2) The solution of 50 μL of sample, 50 μL of porcine pancreatic elastase and 100 μL of reaction substrate was added to a 96-well plate.
(3) After keeping at room temperature for 5 min, an absorbance at 420 nm was measured.
Elastase inhibition rate (%)=(1−sample OD420 nm/experimental well OD420 nm)×100%.

[4] = tested on: secretion of hyaluronic acid, Hacat cells; assay: Promoting secretion of hyaluronic acid in Hacat cells (ELISA); type: cell-based, human; settings: for Secretion of hyaluronic acid: Hacat cells, 24 h
Method: Experiment on Promoting Secretion of Hyaluronic Acid
Human immortalized […] (Hacat cells), human hyaluronic acid Elisa kit, distilled water.
A 96-well plate was inoculated with […] of cell suspension per well, and a concentration of the suspension was 4×10^5 cells/mL. After 24 h of incubation, the original culture medium was discarded, then the cells were washed with PBS for 1-2 times and the serum-free medium containing different concentrations of the drug to be tested was added thereto, and continued to incubate for 24 h. A blank control without drugs and a TGF-β positive control were set. Then the cells were lysed with ripa lysis buffer solution containing 1% PMSF, the supernatant after centrifugation was taken, and the secretion of hyaluronic acid was detected according to the method provided in the […]. The OD value was measured by a microplate reader with a detection wavelength of 450 nm. The OD value was substituted into the regression equation of the standard curve to calculate the increase rate of the secretion of hyaluronic acid.

[5] = tested on: IL-6 secretion, RAW264.7 cells; assay: Immunomodulatory activity: IL-6 secretion by RAW264.7 cells (ELISA); type: cell-based; settings: for IL-6 pg/mL: RAW264.7, 24 h
Method: as §1

[6] = tested on: collagenase; assay: Collagenase inhibition rate; type: biochemical
Method: Experiment on Collagenase Inhibition Rate
Protease buffer solution, protease, protease substrate, inhibitor (1,10-Phenanthroline). All reagents were stored at −20° C.
a. Background blank well: 100 μL/well of protease buffer solution.
b. Sample well: 100 μL, prepared into different concentrations.
c. Positive control well: 10 μL of protease+90 μL of protease buffer solution.
(3) After adding reagents according to the above groups, 100 μL of collagenase reaction mixture was added to each well, incubated in the dark, and then the OD value at 345 nm was measured.
The incubation time depended on the activity of the sample to be tested, and the low activity sample could be incubated for 1-3 h.
Collagenase inhibition rate (%)=(ODbackground well−ODsample well)/(ODbackground well−ODpositive control well).

[7] = tested on: RAW264.7 cells; assay: Survival of RAW264.7 cells; type: cell-based
[8] = DPPH free radical scavenging; type: biochemical
Method: Experiment on the DPPH Free Radical Scavenging
DPPH, water-soluble vitamin E (Trolox) (Trolox dissolved in absolute ethanol, with a concentration of 10 mM, stored at −20° C.), pure water.
The drug to be tested was mixed with DPPH (a final concentration of 100 µM) and reacted at 30° C. for 1 h. 3 repeating wells were set, and a blank control well without drug and a Trolox positive control well were set at the same time. The OD value was measured by a microplate reader with a detection wavelength of 515 nm, and the anti-oxidation rate was calculated.
Anti-oxidation rate (%)=(1−experimental well OD515nm/blank well OD515nm)×100%.

[9] = final reaction concentration 4%
[10] = final reaction concentration 8%
[11] = final reaction concentration 11%
[12] = final reaction concentration 15%
[13] = final reaction concentration 20%
[14] = final reaction concentration 1%

O=C(O)C1O[C@@H](O)C(O)C(O)[C@@H]1O[C@@H]1OC(CO)[C@@H](O[C@@H]2OC(CO)[C@@H](O[C@@H]3OC(CO)[C@@H](O[C@@H]4OC(CO)[C@H](O[C@@H]5OC(CO)[C@H](O)C(O)C5O)C(O)C4O)C(O)C3O)C(O)C2O)C(O)C1O (stereo partly shown) [Dendrobium officinale oligosaccharide]
survival rate and survival time of cells [1]: increase the survival rate and survival time
secretion of TNF-α by RAW264.7 macrophages (in words) ([2]; concentration of 3.125 μg/mL, equivalent to the positive control LPS): significantly increased
TNF-α ([2]; final reaction concentration 3.125 μg/mL): 1062.29 pg/mL
TNF-α ([2]; final reaction concentration 6.25 μg/mL): 35.66 pg/mL
TNF-α ([2]; final reaction concentration 12.5 μg/mL): 53.86 pg/mL
elastase inhibition activity ([3]; concentration of 20%): > 10%
Elastase inhibition rate % [3, 9]: −2.135%
Elastase inhibition rate % [3, 10]: 3.886%
Elastase inhibition rate % [3, 11]: 8.417%
Elastase inhibition rate % [3, 12]: 9.723%
Elastase inhibition rate % [3, 13]: 15.827%
activity to promote the secretion of hyaluronic acid ([4]; concentration of 8%-20%): > 0.3 ng/mL
Secretion of hyaluronic acid [4, 9]: 0.2294 ng/mL
Secretion of hyaluronic acid [4, 10]: 0.5530 ng/mL
Secretion of hyaluronic acid [4, 11]: 0.3691 ng/mL
Secretion of hyaluronic acid [4, 12]: 0.4930 ng/mL
Secretion of hyaluronic acid [4, 13]: 0.5392 ng/mL
secretion of IL-6 by RAW264.7 macrophages (in words) ([5]; concentration of 50 μg/mL, equivalent to the positive control LPS): significantly increased
IL-6 pg/mL ([5]; final reaction concentration 50 μg/mL): 1593.01 pg/mL
IL-6 pg/mL ([5]; final reaction concentration 100 μg/mL): 1376.42 pg/mL
IL-6 pg/mL ([5]; final reaction concentration 200 μg/mL): 1117.33 pg/mL
collagenase inhibition activity ([6]; concentration of 0.4%-4%): > 50%
Collagenase inhibition rate (%) ([6]; final reaction concentration 0.4%): 50.32%
Collagenase inhibition rate (%) ([6]; final reaction concentration 0.8%): 63.63%
Collagenase inhibition rate (%) [6, 14]: 72.20%
Collagenase inhibition rate (%) ([6]; final reaction concentration 2%): 84.80%
Collagenase inhibition rate (%) [6, 9]: 110.54%
survival rate and survival time of cells [7]: increase the survival rate and survival time
anti-oxidation rate ([8]; concentration of 15%-20%): > 20%
Anti-oxidation rate (%) [8, 9]: 11.335%
Anti-oxidation rate (%) [8, 10]: 14.346%
Anti-oxidation rate (%) [8, 11]: 16.213%
Anti-oxidation rate (%) [8, 12]: 21.155%
Anti-oxidation rate (%) [8, 13]: 25.217%

c1cnc2c(c1)ccc1cccnc12 [Positive inhibitor, 1,10-Phenanthroline, reference compound]
Collagenase inhibition rate (%) [6, 14]: 102.23%

Cc1c(C)c2c(c(C)c1O)CCC(C)(C(=O)O)O2 (stereo not shown) [Trolox, reference compound]
Anti-oxidation rate (%) ([8]; final reaction concentration 25 (unit not given), DPPH, 30° C., 1 h): 95.668%

O=C(O[C@@H]1Cc2c(O)cc(O)cc2O[C@@H]1c1ccc(O)c(O)c1)c1cc(O)c(O)c(O)c1 [epicatechin gallate, reference compound]
inhibition at 100 µg/mL ([3]; final reaction concentration 100 μg/ml): 68.5%
